Assay results as given in publication PMC7531004, “Discovery of gramicidin A analogues with altered activities by multidimensional screening of a one-bead-one-compound library” (Nature Communications, 2020).
Where a SMILES comes first, the peptide text is derived from it. [ ]: non-standard residue; d: D form. The star is where a group is joined. NHCH2CH2OH = OCCN*; For = O=C*

What was measured:
[1] = H+/Na+ transport assay of bead-derived peptides (one-point); type: biochemical; set-up: key: relative activity; mean of two control wells = 1.00; details: bead-derived peptide solution, EYPC/EYPG LUVs;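 further: relative to parent gramicidin A activity set to 1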
Method in brief: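 Pyranine (1.0 mM)-loaded LUVs containing egg yolk phosphatidylglycerol were prepared by film hydration, sonication and extrusion, then mixed with diluted bead-derived peptide in 96-well format and vortexed 30 min at room temperature. Fluorescence was normalized between untreated LUVs (0%) and Triton X-100 lysis (100%).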

[2] = tested on: Streptococcus pyogenes SSI-9; assay: Antibacterial activity assay of bead-derived peptides (three concentrations); type: cell-based; set-up: key: +++: inhibition by the 640-fold diluted peptide solution; ++: inhibition by the 160-fold diluted solution; +: inhibition by the 40-fold diluted solution; -: no inhibition; details: S. pyogenes, bead-derived peptide solution, three concentrations
Method in brief: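 Library peptide stock applied undiluted, 4-fold and 16-fold diluted in DMSO to S. pyogenes SSI-9 (2 × 10^5 CFU) in cation-adjusted Mueller Hinton broth with 5% laked horse blood. After 18 h at 37 °C, growth judged by visible cell precipitation.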

[3] = tested on: P388 mouse leukemia cells; details: 92 h
Method in brief: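 P388 cells at 1 × 10^4 cells/mL (final) were exposed to library peptides (stocks diluted 250-fold in RPMI1640/10% FBS) for 92 h at 37 °C, 5% CO2. Viable cells were counted by WST-1/1-methoxy PMS (4 h), absorbance 415 nm, and expressed as cell viability (%).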

With `CNC(=O)C[C@@H](NC(=O)[C@H](Cc1c[nH]c2ccccc12)NC(=O)[C@@H](CC(C)C)NC(=O)[C@H](Cc1c[nH]c2ccccc12)NC(=O)[C@@H](CC(C)C)NC(=O)[C@H](Cc1c[nH]c2ccccc12)NC(=O)[C@H](NC(=O)[C@@H](NC(=O)[C@H](NC(=O)[C@H](C)NC(=O)[C@@H](CC(C)C)NC(=O)[C@H](C)NC(=O)CNC(=O)[C@@H](NC=O)C(C)C)C(C)C)C(C)C)C(C)C)C(=O)N[C@@H](Cc1c[nH]c2ccccc12)C(=O)NCCO` [compound 2020] (For-VGA[dL]A[dV]V[dV]W[dL]W[dL]W[dD](NHMe)W-NHCH2CH2OH) the “H+/Na+ transport activity normalized against the value of 1 (1.00)” value (“H+/Na+ transport activity normalized” below) [1] was 1.02, the antibacterial activity [2] was “-” and the cell viability/% [3] was 100.0%.
For `CC(C)C[C@@H](NC(=O)[C@H](C)NC(=O)[C@H](NC(=O)[C@H](C)NC(=O)CNC(=O)[C@@H](NC=O)C(C)C)[C@H](C)O)C(=O)N[C@H](C(=O)N[C@H](CC(C)C)C(=O)N[C@@H](Cc1c[nH]c2ccccc12)C(=O)N[C@@H](C(=O)N[C@@H](Cc1c[nH]c2ccccc12)C(=O)N[C@H](CC(C)C)C(=O)N[C@@H](Cc1c[nH]c2ccccc12)C(=O)N[C@H](CC(C)C)C(=O)N[C@@H](Cc1c[nH]c2ccccc12)C(=O)NCCO)C(C)C)C(C)C` [compound 11561] (For-VGA[dT]A[dL]V[dL]W[dV]W[dL]W[dL]W-NHCH2CH2OH), the “H+/Na+ transport activity normalized” value [1] was 1.01, the antibacterial activity [2] was “-” and the cell viability/% [3] was 100.0%.
In the case of `CNC(=O)C[C@@H](NC(=O)[C@@H](NC(=O)[C@@H](CC(C)C)NC(=O)[C@H](C)NC(=O)[C@@H](CC(C)C)NC(=O)[C@H](C)NC(=O)CNC(=O)[C@@H](NC=O)C(C)C)C(C)C)C(=O)N[C@@H](Cc1c[nH]c2ccccc12)C(=O)N[C@H](CC(C)C)C(=O)N[C@@H](Cc1c[nH]c2ccccc12)C(=O)N[C@H](CC(C)C)C(=O)N[C@@H](Cc1c[nH]c2ccccc12)C(=O)N[C@@H](C(=O)N[C@@H](Cc1c[nH]c2ccccc12)C(=O)NCCO)[C@H](C)O` [compound 8992] (For-VGA[dL]A[dL]V[dD](NHMe)W[dL]W[dL]W[dT]W-NHCH2CH2OH), the “H+/Na+ transport activity normalized” value [1] is reported as 1.07, the antibacterial activity [2] is reported as “-” and the cell viability/% [3] is reported as 56.1%.
With `CC(C)C[C@@H](NC(=O)[C@H](Cc1c[nH]c2ccccc12)NC(=O)[C@H](NC(=O)[C@H](Cc1c[nH]c2ccccc12)NC(=O)[C@@H](CC(C)C)NC(=O)[C@H](Cc1c[nH]c2ccccc12)NC(=O)[C@H](NC(=O)[C@@H](NC(=O)[C@H](NC(=O)[C@H](C)NC(=O)[C@H](NC(=O)[C@H](C)NC(=O)CNC(=O)[C@@H](NC=O)C(C)C)[C@H](C)O)C(C)C)C(C)C)C(C)C)C(C)C)C(=O)N[C@@H](Cc1c[nH]c2ccccc12)C(=O)NCCO` [compound 3548] (For-VGA[dT]A[dV]V[dV]W[dL]W[dV]W[dL]W-NHCH2CH2OH) the “H+/Na+ transport activity normalized” value [1] was 1.16, the antibacterial activity [2] was “-” and the cell viability/% [3] was 100.0%.
In the case of `CNC(=O)C[C@@H](NC(=O)[C@@H](NC(=O)[C@@H](CC(C)C)NC(=O)[C@H](C)NC(=O)[C@@H](CC(C)C)NC(=O)[C@H](C)NC(=O)CNC(=O)[C@@H](NC=O)C(C)C)C(C)C)C(=O)N[C@@H](Cc1c[nH]c2ccccc12)C(=O)N[C@H](CC(C)C)C(=O)N[C@@H](Cc1c[nH]c2ccccc12)C(=O)N[C@H](CC(C)C)C(=O)N[C@@H](Cc1c[nH]c2ccccc12)C(=O)N[C@H](CC(C)C)C(=O)N[C@@H](Cc1c[nH]c2ccccc12)C(=O)NCCO` [compound 1400] (For-VGA[dL]A[dL]V[dD](NHMe)W[dL]W[dL]W[dL]W-NHCH2CH2OH), the “H+/Na+ transport activity normalized” value [1] is reported as 1.10, the antibacterial activity [2] is reported as “-” and the cell viability/% [3] is reported as 72.7%.
In the case of `CC(C)C[C@@H](NC(=O)[C@H](C)NC(=O)[C@H](NC(=O)[C@H](C)NC(=O)CNC(=O)[C@@H](NC=O)C(C)C)C(C)C)C(=O)N[C@H](C(=O)N[C@H](CC(C)C)C(=O)N[C@@H](Cc1c[nH]c2ccccc12)C(=O)N[C@@H](C(=O)N[C@@H](Cc1c[nH]c2ccccc12)C(=O)N[C@@H](C(=O)N[C@@H](Cc1c[nH]c2ccccc12)C(=O)N[C@H](CC(C)C)C(=O)N[C@@H](Cc1c[nH]c2ccccc12)C(=O)NCCO)C(C)C)[C@H](C)O)C(C)C` [compound 6572] (For-VGA[dV]A[dL]V[dL]W[dT]W[dV]W[dL]W-NHCH2CH2OH), the “H+/Na+ transport activity normalized” value [1] is reported as 1.09, the antibacterial activity [2] is reported as “-” and the cell viability/% [3] is reported as 100.0%.
For `CC(C)C[C@@H](NC(=O)[C@H](Cc1c[nH]c2ccccc12)NC(=O)[C@H](NC(=O)[C@H](Cc1c[nH]c2ccccc12)NC(=O)[C@H](NC(=O)[C@H](Cc1c[nH]c2ccccc12)NC(=O)[C@@H](CC(C)C)NC(=O)[C@@H](NC(=O)[C@H](NC(=O)[C@H](C)NC(=O)[C@H](NC(=O)[C@H](C)NC(=O)CNC(=O)[C@@H](NC=O)C(C)C)C(C)C)C(C)C)C(C)C)C(C)C)[C@H](C)O)C(=O)N[C@@H](Cc1c[nH]c2ccccc12)C(=O)NCCO` [compound 8633] (For-VGA[dV]A[dV]V[dL]W[dV]W[dT]W[dL]W-NHCH2CH2OH), the “H+/Na+ transport activity normalized” value [1] was 1.00, the antibacterial activity [2] was “-” and the cell viability/% [3] was 61.8%.
For `CC(C)C[C@@H](NC(=O)[C@H](Cc1c[nH]c2ccccc12)NC(=O)[C@H](NC(=O)[C@H](Cc1c[nH]c2ccccc12)NC(=O)[C@H](NC(=O)[C@H](Cc1c[nH]c2ccccc12)NC(=O)[C@@H](CC(C)C)NC(=O)[C@@H](NC(=O)[C@H](NC(=O)[C@H](C)NC(=O)[C@H](NC(=O)[C@H](C)NC(=O)CNC(=O)[C@@H](NC=O)C(C)C)C(C)C)C(C)C)C(C)C)C(C)C)C(C)C)C(=O)N[C@@H](Cc1c[nH]c2ccccc12)C(=O)NCCO` [compound 3111] (For-VGA[dV]A[dV]V[dL]W[dV]W[dV]W[dL]W-NHCH2CH2OH), the “H+/Na+ transport activity normalized” value [1] was 1.12, the antibacterial activity [2] was “-” and the cell viability/% [3] was 8.2%.
For `CC(C)C[C@@H](NC(=O)[C@H](C)NC(=O)[C@H](NC(=O)[C@H](C)NC(=O)CNC(=O)[C@@H](NC=O)C(C)C)C(C)C)C(=O)N[C@H](C(=O)N[C@H](CC(C)C)C(=O)N[C@@H](Cc1c[nH]c2ccccc12)C(=O)N[C@H](CC(C)C)C(=O)N[C@@H](Cc1c[nH]c2ccccc12)C(=O)N[C@@H](C(=O)N[C@@H](Cc1c[nH]c2ccccc12)C(=O)N[C@@H](C(=O)N[C@@H](Cc1c[nH]c2ccccc12)C(=O)NCCO)[C@H](C)O)C(C)C)C(C)C` [compound 6943] (For-VGA[dV]A[dL]V[dL]W[dL]W[dV]W[dT]W-NHCH2CH2OH), the “H+/Na+ transport activity normalized” value [1] was 1.02, the antibacterial activity [2] was “-” and the cell viability/% [3] was 100.0%.
In the case of `CC(C)C[C@@H](NC(=O)[C@H](C)NC(=O)CNC(=O)[C@@H](NC=O)C(C)C)C(=O)N[C@@H](C)C(=O)N[C@H](CC(C)C)C(=O)N[C@H](C(=O)N[C@@H](C(=O)N[C@@H](Cc1c[nH]c2ccccc12)C(=O)N[C@H](CC(C)C)C(=O)N[C@@H](Cc1c[nH]c2ccccc12)C(=O)N[C@H](CC(C)C)C(=O)N[C@@H](Cc1c[nH]c2ccccc12)C(=O)N[C@@H](C(=O)N[C@@H](Cc1c[nH]c2ccccc12)C(=O)NCCO)C(C)C)[C@H](C)O)C(C)C` [compound 4690] (For-VGA[dL]A[dL]V[dT]W[dL]W[dL]W[dV]W-NHCH2CH2OH), the “H+/Na+ transport activity normalized” value [1] is reported as 1.01, the antibacterial activity [2] is reported as “+” and the cell viability/% [3] is reported as 100.0%.
For `CC(C)C[C@@H](NC(=O)[C@H](Cc1c[nH]c2ccccc12)NC(=O)[C@H](NC(=O)[C@H](Cc1c[nH]c2ccccc12)NC(=O)[C@@H](CC(C)C)NC(=O)[C@@H](NC(=O)[C@H](NC(=O)[C@H](C)NC(=O)[C@H](NC(=O)[C@H](C)NC(=O)CNC(=O)[C@@H](NC=O)C(C)C)[C@H](C)O)C(C)C)C(C)C)C(C)C)C(=O)N[C@@H](Cc1c[nH]c2ccccc12)C(=O)N[C@@H](C(=O)N[C@@H](Cc1c[nH]c2ccccc12)C(=O)NCCO)C(C)C` [compound 4187] (For-VGA[dT]A[dV]V[dL]W[dV]W[dL]W[dV]W-NHCH2CH2OH), the “H+/Na+ transport activity normalized” value [1] was 1.32, the antibacterial activity [2] was “-” and the cell viability/% [3] was 95.1%.
For `CC(C)C[C@@H](NC(=O)[C@H](C)NC(=O)[C@H](NC(=O)[C@H](C)NC(=O)CNC(=O)[C@@H](NC=O)C(C)C)C(C)C)C(=O)N[C@H](C(=O)N[C@@H](C(=O)N[C@@H](Cc1c[nH]c2ccccc12)C(=O)N[C@@H](C(=O)N[C@@H](Cc1c[nH]c2ccccc12)C(=O)N[C@H](CC(C)C)C(=O)N[C@@H](Cc1c[nH]c2ccccc12)C(=O)N[C@H](CC(C)C)C(=O)N[C@@H](Cc1c[nH]c2ccccc12)C(=O)NCCO)C(C)C)C(C)C)C(C)C` [compound 12099] (For-VGA[dV]A[dL]V[dV]W[dV]W[dL]W[dL]W-NHCH2CH2OH), the “H+/Na+ transport activity normalized” value [1] was 1.05, the antibacterial activity [2] was “+” and the cell viability/% [3] was 85.4%.
For `CC(C)C[C@@H](NC(=O)[C@H](Cc1c[nH]c2ccccc12)NC(=O)[C@H](NC(=O)[C@H](Cc1c[nH]c2ccccc12)NC(=O)[C@@H](CC(C)C)NC(=O)[C@@H](NC(=O)[C@H](NC(=O)[C@H](C)NC(=O)[C@H](NC(=O)[C@H](C)NC(=O)CNC(=O)[C@@H](NC=O)C(C)C)[C@H](C)O)C(C)C)C(C)C)C(C)C)C(=O)N[C@@H](Cc1c[nH]c2ccccc12)C(=O)N[C@@H](C(=O)N[C@@H](Cc1c[nH]c2ccccc12)C(=O)NCCO)C(C)C` [compound 6116] (For-VGA[dT]A[dV]V[dL]W[dV]W[dL]W[dV]W-NHCH2CH2OH), the “H+/Na+ transport activity normalized” value [1] was 1.13, the antibacterial activity [2] was “-” and the cell viability/% [3] was 93.5%.
